From ChEMBL document CHEMBL1150880, “Novel and insecticidal isobutylamides from dinosperma erythrococca” (J Nat Prod, 1998)
Activity calls are given as the source filed them. No cut-off for these calls is given here.

How the values were obtained:
[1] = test system: Musca domestica; experiment: Insecticidal activity against housefly at 1000 ppm after 3 to 5 days; assay type: functional, organism-based
[2] = test system: Musca domestica; experiment: Insecticidal activity against housefly at 2500 ppm after 3 to 5 days; assay type: functional, organism-based
[3] = test system: Heliothis virescens; experiment: Insecticidal activity against tobacco budworm at 1000 ppm after 3 to 5 days; assay type: functional, organism-based
[4] = test system: Musca domestica; experiment: Insecticidal activity against housefly after 3 to 5 days relative to permethrin; assay type: functional
[5] = test system: Musca domestica; experiment: Insecticidal activity against housefly after 3 to 5 days; assay type: functional, organism-based
[6] = test system: Musca domestica; experiment: Insecticidal activity against housefly after 3 to 5 days relative to cypermethrin; assay type: functional, organism-based
[7] = test system: Musca domestica; experiment: Insecticidal activity against housefly at 500 ppm after 3 to 5 days; assay type: functional, organism-based
[8] = test system: Heliothis virescens; experiment: Insecticidal activity against tobacco budworm at 500 ppm after 3 to 5 days; assay type: functional
[9] = test system: Heliothis virescens; experiment: Insecticidal activity against tobacco budworm at 2500 ppm after 3 to 5 days; assay type: functional, organism-based
[10] = test system: Heliothis virescens; experiment: Insecticidal activity against tobacco budworm after 3 to 5 days; assay type: functional, organism-based
[11] = test system: Heliothis virescens; experiment: Insecticidal activity against tobacco budworm after 3 to 5 days relative to profenofos; assay type: functional

`CCCCC/C=C/C=C/C(=O)NCC(C)C` was tested. Which Activity [1] did it give?
The Activity was “inactive”.

And the Activity [2]?
Its Activity is “Active”.

What about the Activity [3] of the same molecule?
Its Activity is “inactive”.

For `CC(C)CNC(=O)/C=C/C=C/CC1CCc2ccc(Cl)cc2C1` (stereo not given), which Activity [4] is on record?
Its Activity is 40%.

With `CC(C)CNC(=O)/C=C/C=C/Cc1ccccc1` as the molecule, how does the EC50 [5] read?
The EC50 was 59.9 ppm.

What about the Activity [6] of the same molecule?
The Activity was 1.8%.

What about the Activity [7] of the same molecule?
The Activity was “Active”.

How did the Activity [7] turn out when `CC(C)CNC(=O)CC1CCc2cc3c(cc2O1)OCO3` (stereo not given) was run?
The Activity was “inactive”.

What about the Activity [8] of the same molecule?
Its Activity is “inactive”.

Which Activity [2] does the source give for `CC(C)CNC(=O)/C=C/c1ccc2c(c1)OCO2` here?
The Activity was “inactive”.

What about the Activity [9] of the same molecule?
The Activity was “inactive”.

Which Activity [7] does the source give for `COc1c2c(cc3ccoc13)CCC(C/C=C/C=C/C(=O)NCC(C)C)O2` (stereo not given) here?
Its Activity is “inactive”.

What about the Activity [8] of the same molecule?
Its Activity is “inactive”.

`CC(C)CNC(=O)/C=C/C=C/CC1CCc2cc3c(cc2O1)OCO3` (stereo not given) [ERYTHROCOCCAMIDE A] was tested. Which EC50 [5] did it give?
The EC50 was 20.2 ppm.

And the EC50 [6]?
Its EC50 is 3 ppm.

What about the Activity [7] of the same molecule?
The Activity was “Active”.

And the EC50 [10]?
Its EC50 is 74.2 ppm.

What about the Activity [11] of the same molecule?
The Activity was 9.9%.

And the Activity [4]?
The Activity was 9%.

`CC(C)(O)CNC(=O)/C=C/C=C/Cc1ccccc1` was tested. Which Activity [8] did it give?
The Activity was 80%.
